Results on 2 compounds are retold here after ChEMBL document CHEMBL3603765, “Targeting Drug Resistance in EGFR with Covalent Inhibitors: A Structure-Based Design Approach” (J Med Chem, 2015).

≈ marks a conversion by molar mass, not a printed value. Calls of active or inactive are those of the source. The calls are words filed in the database; no cut-off is given here.

For series [1], the target named is Epidermal growth factor receptor (Homo sapiens, UniProt P00533). Put plainly: Inhibition of wild type EGFR (unknown origin) expressed in Sf9 cells pre-incubated for 30 mins before substrate and ATP addition by homogeneous time-resolved FRET assay.
For series [2], the system named is Epidermal growth factor receptor (Homo sapiens), P00533 [T790M]. Put plainly: Binding affinity to EGFR T790M mutant (unknown origin) expressed in Sf9 cells by ESI-MS method.
Series [3] has the same test system. The series can be described thus: Binding affinity to EGFR T790M mutant (unknown origin) expressed in Sf9 cells assessed as covalent modification at Cys797 residue nano-LC-MS/MS method.
For series [4], the target named is Proto-oncogene tyrosine-protein kinase Src (Homo sapiens, UniProt P12931, T341M). Put plainly: Inhibition of cSrc T338M mutant (unknown origin) pre-incubated for 30 mins before substrate and ATP addition by HTRF assay.
For series [5], the target named is Proto-oncogene tyrosine-protein kinase Src (Homo sapiens, UniProt P12931, S348C/T341M). Put plainly: Inhibition of cSrc T338M/S345C mutant (unknown origin) pre-incubated for 30 mins before substrate and ATP addition by HTRF assay. In general terms: TR-FRET usually uses a lanthanide donor and a delayed reading to cut background.
Series [6] is filed under the species Homo sapiens. Put plainly: Selectivity index, ratio of IC50 for cSrc T338M mutant (unknown origin) to IC50 for cSrc T338M/S345C mutant (unknown origin).
Series [7] deals with T1, Epidermal growth factor receptor (Homo sapiens, UniProt P00533, L858R). Put plainly: Inhibition of EGFR L858R mutant (unknown origin) expressed in Sf9 cells by enzyme kinetics assay.
Series [8] deals with T2, Epidermal growth factor receptor (Homo sapiens, UniProt P00533, L858R/T790M). Put plainly: Inhibition of EGFR L858R/T790M mutant (unknown origin) expressed in Sf9 cells by enzyme kinetics assay.
The test system of series [9] is Epidermal growth factor receptor (Homo sapiens), P00533 [L858R]. Put plainly: Inhibition of EGFR L858R mutant (unknown origin) expressed in Sf9 cells assessed as enzyme inactivation constant by enzyme kinetics assay.
For series [10], the system named is Epidermal growth factor receptor (Homo sapiens), P00533 [L858R,T790M]. The series can be described thus: Inhibition of EGFR L858R/T790M mutant (unknown origin) expressed in Sf9 cells assessed as enzyme inactivation constant by enzyme kinetics assay.
For series [11], the system named is A-431. Put plainly: Growth inhibition of human A431 cells incubated for 96 hrs by cell-titer Glo reagent based assay. The conditions noted are these: A-431, 96 h. Format: functional.
The nature of series [12]: Growth inhibition of human HCC827 cells with exon 19 deletion and delE746-A750 incubated for 96 hrs by cell-titer Glo reagent based assay. The format is functional. Particulars: HCC827, 96 h.
For series [13], the system named is NCI-H1975. Put plainly: Growth inhibition of human NCI-H1975 cells expressing EGFR L858R/T790M mutant incubated for 96 hrs by cell-titer Glo reagent based assay. Format: functional. The conditions noted are these: NCI-H1975, 96 h.
Series [14] is described as follows: Kinetic solubility in 50 mM Hepes buffer at pH 7.4. Particulars: read-out: Kinetic_solubility. The format is physicochemical.
The nature of series [15]: Permeability of the compound after 16 hrs assessed as compound flux by PAMPA method. The format is physicochemical. (PAMPA measures passive passage across an artificial lipid membrane.)
Series [16] can be described thus: Efflux ratio in human Caco2 cells incubated for 2 hrs. The format is ADME, cell-based. Particulars: Caco-2. For orientation: Caco-2 cells form a polarised layer with tight junctions and transporters.
Series [17] addresses T1, Epidermal growth factor receptor.
Series [18] addresses T2, Epidermal growth factor receptor.
The target of series [19] is Proto-oncogene tyrosine-protein kinase Src (Homo sapiens, UniProt P12931). Put plainly: Inhibition of wild type cSrc (251 to 533 residues) (unknown origin) pre-incubated for 30 mins before substrate and ATP addition by HTRF assay.
The nature of series [20]: Growth inhibition of human PC9 cells with del1 deletion incubated for 96 hrs by cell-titer Glo reagent based assay. The format is functional. The conditions noted are these: PC-9, 96 h.

As to `C=CC(=O)Nc1cccc(Oc2nc(Nc3cc(C)[nH]n3)cc(N3CCN(C)CC3)n2)c1`, the IC50 is above 10 µM in series [1]; 0.17 µM in series [4]; 0.028 µM in series [5]; 0.03 µM in series [17]; 0.5 µM in [18]. Besides, the outcome in series [2] and in series [3] was Active. Further, the Ratio IC50 in [6] was 5. Also, the Ki in [7] stood at 0.0702 µM; in series [8], 0.00064 µM. In addition, the Kinact in [9] amounted to 0.017 min⁻¹; in series [10], 0.116 min⁻¹. Further, the values for the GI50 in [11], in series [12] and in series [13] were 5.7 µM, 8.2 µM and 20 µM, respectively. In addition, in series [14], the solubility kinetic was 432 µM (≈ 188 µg/mL). The permeability in series [15] was determined as 7%. In addition, the efflux ratio at 2 h in [16] stood at 32.

Turning to `C=CC(=O)Nc1ccc2c(Nc3cc[nH]n3)nc(-c3ccccc3)nc2c1`, the IC50 is above 10 µM in series [1]; 0.211 µM in series [19]; 0.065 µM in [4]; 0.043 µM in series [5]; 1.9 µM in series [17]; 2.2 µM in series [18]. The GI50 in [11] was 0.7 µM; in [20], 1.9 µM; in series [13], 1.6 µM.

As a reminder, the IC50 is the concentration needed to halve the response being measured. A low value points to greater potency in that assay. As usually defined, the Ki is a measure of affinity in units of concentration, obtained from inhibition or displacement. Read a low Ki as a stronger hold on the target. By GI50 is commonly meant the concentration that inhibits growth by half. Low readings indicate more potent growth inhibition, high ones less potent growth inhibition. What is called efflux ratio is the permeability from basolateral to apical divided by that in the opposite direction, in the common usage.
